Among the test systems are A498; CAKI-1; CCRF-CEM; HCC 2998; HL-60; Hs-578T; K562; LOX IMVI; NCI-H226; OVCAR-5; RPMI-8226; RXF 393; SF-268; SF-295; SN12C; SW-620; TK-10; U-251; UACC-257; UACC-62.
Assay in all cases: NCI-60 cell line screen, 48 h

Structures are written as SMILES. Several values for one entry are separate records, joined by “and”; a condition that tells them apart may be missing. Equal values may be shown once.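 Results reflect a 48-hour exposure of cells in 96-well plates to compound at five concentrations. The concentration for 50% growth inhibition is given as GI50.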 Activity calls are given as the source filed them. No stated cut-off is given here; in the data, active = GI50 up to about 1.1 µM and inactive = higher.

For the molecule `Cc1ccc(-c2nc3cc(F)c(N4CCN(C)CC4)cc3[nH]2)cc1`, the GI50 in the experiment on A498 is 32.7 µM (inactive); with CAKI-1, 32.1 µM (inactive); in the experiment on CCRF-CEM, 23.4 µM (inactive); in the experiment on HCC 2998, 11.9 µM (inactive); in the experiment with HL-60 it was 21.4 µM (inactive); in the experiment with Hs-578T it was 10.7 µM (inactive). Also, the GI50 is 16.4 µM (inactive) with K562; 27.9 µM (inactive) with LOX IMVI; 8.3 µM (inactive) in the experiment with NCI-H226; 21.9 µM (inactive) in the experiment with OVCAR-5; 33.6 µM (inactive) with RPMI-8226; 18.5 µM (inactive) in the experiment on RXF 393. The GI50 in the experiment with SF-268 was 15.3 µM (inactive); in the experiment on SF-295 it was 16.6 µM (inactive); in the experiment on SN12C, 54.1 µM (inactive); in the experiment on SW-620, 37.1 µM (inactive); in the experiment on TK-10, 22.2 µM (inactive); with U-251, 29.5 µM (inactive). In addition, the GI50 is 17.2 µM (inactive) in the experiment with UACC-257 and 16.3 µM (inactive) in the experiment with UACC-62.
Take `CC(C)(CN1CCCCC1)C(=O)CC(SCCS(=O)(=O)O)c1ccc(Cl)c(Cl)c1` (stereo unspecified): the GI50 in the experiment on A498 is 3.56 µM (inactive); with CAKI-1, 2.97 µM (inactive); with CCRF-CEM, 2.07 µM (inactive); with HCC 2998, 13 µM (inactive); with HL-60 it was 3.46 µM (inactive); with Hs-578T, 2.8 µM (inactive). For the same molecule, the GI50 with K562 is 2.42 µM (inactive); in the experiment with NCI-H226 it was 20 µM (inactive); in the experiment with OVCAR-5, 3.78 µM (inactive); in the experiment with RPMI-8226, 4.01 µM (inactive); in the experiment with RXF 393, 3.16 µM (inactive); in the experiment on SF-268, 3.72 µM (inactive). The GI50 is 3.25 µM (inactive) in the experiment with SF-295; 3.46 µM (inactive) with SN12C; 2.22 µM (inactive) with SW-620; 5.46 µM (inactive) in the experiment on TK-10; 7.13 µM (inactive) with U-251; 5.94 µM (inactive) in the experiment with UACC-257. Moreover, the GI50 in the experiment with UACC-62 is 3.13 µM (inactive).
As for `COc1cc(C(=O)N(C(=S)OC23CC4CC(CC(C4)C2)C3)c2ccccc2)cc(OC)c1OC`, the GI50 in the experiment on A498 was 24.9 µM (inactive); in the experiment on CAKI-1, 31.3 µM (inactive); in the experiment with CCRF-CEM, 2.89 µM (inactive); in the experiment with HCC 2998, 23.4 µM (inactive); in the experiment on HL-60, 9.73 µM (inactive); in the experiment with Hs-578T it was 27.4 µM (inactive). Moreover, the GI50 with K562 was 2.75 µM (inactive); in the experiment with NCI-H226 it was 21.5 µM (inactive); in the experiment on OVCAR-5, 26.5 µM (inactive); with RXF 393 it was 32.7 µM (inactive); with SF-268, 35.6 µM (inactive); in the experiment with SF-295, 22.1 µM (inactive). Moreover, the GI50 in the experiment on SN12C is 28.6 µM (inactive); with SW-620, 22.7 µM (inactive); with TK-10 it was 42.8 µM (inactive); in the experiment with U-251 it was 19 µM (inactive); with UACC-257 it was 26.4 µM (inactive); with UACC-62 it was 22 µM (inactive).
`CCCCCCCC(CC(=O)NC(CO)C(=O)NC(CO)CC(C)C)OC(=O)CC(CCCCCCC)OC(=O)CC(CCCCCCC)OC1OC(C)C(O)C(OC2OC(C)C(OC(C)=O)C(O)C2O)C1O` (stereo unspecified): the GI50 with A498 was 11.3 µM (inactive); with CAKI-1, 15.2 µM (inactive); in the experiment on CCRF-CEM, 3.7 µM (inactive); in the experiment on HCC 2998, 5.05 µM (inactive); in the experiment with HL-60, 2.92 µM (inactive); in the experiment on Hs-578T it was 4.22 µM (inactive). The GI50 with K562 was 4.61 µM (inactive); with NCI-H226 it was 16.6 µM (inactive); in the experiment with OVCAR-5, 10.1 µM (inactive); in the experiment on RXF 393, 3.76 µM (inactive); in the experiment with SF-268, 8.28 µM (inactive); in the experiment with SF-295 it was 12 µM (inactive). Also, the GI50 is 6.49 µM (inactive) in the experiment on SN12C; 10.7 µM (inactive) with SW-620; 16.1 µM (inactive) with TK-10; 4.41 µM (inactive) with U-251; 2.22 µM (inactive) with UACC-257; 6.34 µM (inactive) in the experiment with UACC-62.
With `Cc1c(N2C(=O)/C(=C/c3ccc(N(CCC#N)CCC#N)cc3)N=C2c2ccccc2)c(=O)n(-c2ccccc2)n1C`, the GI50 in the experiment on A498 is > 100 µM (inactive); in the experiment on CAKI-1 it was > 100 µM (inactive); with CCRF-CEM it was 59.6 µM (inactive); in the experiment with HCC 2998 it was > 100 µM (inactive); in the experiment with HL-60, 96.2 µM (inactive); in the experiment with Hs-578T it was > 100 µM (inactive). For the same molecule, the GI50 in the experiment on LOX IMVI, in the experiment with NCI-H226, in the experiment on OVCAR-5, in the experiment with RPMI-8226, in the experiment with RXF 393 and in the experiment on SF-268 was > 100 µM (inactive) throughout. In addition, the GI50 in the experiment on SF-295, in the experiment on SN12C, in the experiment with SW-620, in the experiment on U-251, in the experiment with UACC-257 and in the experiment on UACC-62 was > 100 µM (inactive) throughout.
Regarding `C#CC1(O)CCCCCCCCC2(CCCCCCCC1)OCCO2`, the GI50 is 14.7 µM (inactive) in the experiment with A498; 12 µM (inactive) in the experiment on CAKI-1; 15.5 µM (inactive) in the experiment on HCC 2998; 13.5 µM (inactive) with HL-60; 17.8 µM (inactive) with Hs-578T; 17.5 µM (inactive) in the experiment with K562. Moreover, the GI50 with LOX IMVI was 22.1 µM (inactive); in the experiment on NCI-H226, 17 µM (inactive); with OVCAR-5, 22 µM (inactive); with RPMI-8226, 0.414 µM (active); in the experiment with RXF 393, 10.9 µM (inactive); with SF-268 it was 17.3 µM (inactive). For the same molecule, the GI50 in the experiment with SF-295 is 19.8 µM (inactive); with SN12C, 17.4 µM (inactive); in the experiment on SW-620 it was 18.8 µM (inactive); with TK-10, 20.7 µM (inactive); in the experiment on U-251, 17.1 µM (inactive); with UACC-257, 23.4 µM (inactive). Also, the GI50 in the experiment with UACC-62 is 14.8 µM (inactive).
In the case of `CC1(C)OC2OC(C(COS(=O)(=O)C(F)(F)F)N=[N+]=[N-])C(OC(=O)c3ccccc3)C2O1` (stereo unspecified), the GI50 in the experiment with A498, with CAKI-1, in the experiment with CCRF-CEM, in the experiment on HCC 2998, with HL-60 and in the experiment with Hs-578T was > 100 µM (inactive) throughout. Further, the GI50 with K562 is > 100 µM (inactive); in the experiment on LOX IMVI, > 100 µM (inactive); in the experiment on NCI-H226, > 100 µM (inactive); with OVCAR-5, > 100 µM (inactive); in the experiment with RXF 393, > 100 µM (inactive) and 59.3 µM (inactive); with SF-268 it was > 100 µM (inactive). In addition, the GI50 in the experiment on SF-295, in the experiment with SN12C, in the experiment with SW-620, in the experiment on TK-10, in the experiment on U-251 and with UACC-257 was > 100 µM (inactive) in each case. In addition, the GI50 with UACC-62 was > 100 µM (inactive).

The record behind these values is ChEMBL document CHEMBL1201862, “PubChem BioAssay data set” (2004).
